According to ChEMBL document CHEMBL1149919, “Inhibition of human rhinovirus 3C protease by homophthalimides” (Bioorg Med Chem Lett, 1997):

Tests used:
[1] = target: T1, Human rhinovirus A protease (Human rhinovirus sp.) (UniProt Q4U254); test: Inhibition of Protease 3C of HRV-14 (human rhinovirus); parameters: concentration or dose not given beside the values; details: Rhinovirus B; concentration not given here
T1 sequence (whole entry): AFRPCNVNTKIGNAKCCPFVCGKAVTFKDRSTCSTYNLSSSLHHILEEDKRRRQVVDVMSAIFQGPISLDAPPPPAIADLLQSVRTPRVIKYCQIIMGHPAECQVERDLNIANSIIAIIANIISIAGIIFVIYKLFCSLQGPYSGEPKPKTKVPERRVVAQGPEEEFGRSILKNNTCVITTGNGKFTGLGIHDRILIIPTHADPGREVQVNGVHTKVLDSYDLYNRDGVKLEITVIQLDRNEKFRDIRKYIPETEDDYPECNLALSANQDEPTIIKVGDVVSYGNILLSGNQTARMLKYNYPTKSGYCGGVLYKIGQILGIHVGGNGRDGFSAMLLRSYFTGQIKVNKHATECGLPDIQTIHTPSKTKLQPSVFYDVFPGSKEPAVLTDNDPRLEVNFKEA

[2] = test system: HeLa; test: Antiviral activity in a one-cycle viral replication assay against HRV-14 (human rhinovirus) infected HeLa cells; assay type: functional, cell-based
[3] = Cytotoxic effect against HeLa cell line measured by XTT assay; assay type: cell-based; details: human, HeLa cells; read-out: TC50 (the source's name)
[4] = target: T2, Human rhinovirus A protease (Human rhinovirus sp., UniProt Q4U254); test: The compound was tested for the inhibitory activity against HRV-14 (human rhinovirus) Protease 3C
T2 sequence (Q4U254 whole entry): T1 sequence (whole entry)

[5] = Therapeutic index was determined; details: read-out: TI

| Compound | inhibition [1] [%] | IC50 [2] [µM] | CC50 [3] [µM] | IC50 [4] [µM] | selectivity ratio [5] |
| --- | --- | --- | --- | --- | --- |
| CCOC(=O)CCN1C(=O)Cc2ccccc2C1=O | 13 |  |  |  |  |
| NC(=O)CCN1C(=O)Cc2ccccc2C1=O | 11 |  |  |  |  |
| O=C(O)CCN1C(=O)Cc2ccccc2C1=O | 0 |  |  |  |  |
| C[S+]([O-])CCN1C(=O)Cc2ccccc2C1=O (stereo unspecified) | 19 |  |  |  |  |
| CSCCCN1C(=O)Cc2ccccc2C1=O | 16 |  |  |  |  |
| CS(=O)(=O)CCCN1C(=O)c2ccccc2C(CC(=O)c2ccccc2)C1=O (stereo unspecified) | 70 | > 10 | > 100 | 25 |  |
| CS(=O)(=O)CCN1C(=O)c2ccccc2C(CC(=O)c2ccccc2)C1=O (stereo unspecified) | 100 | 8.5 | 70.5 | 22.1 | 8.3 |
| CSCCCN1C(=O)c2ccccc2C(CC(=O)c2ccccc2)C1=O (stereo unspecified) | 35 | > 10 | 63 | 131 |  |
| CCOC(=O)CCN1C(=O)c2ccccc2C(C(C)=O)C1=O (stereo unspecified) | 8 |  |  |  |  |
| CSCCN1C(=O)Cc2ccccc2C1=O | 13 |  |  |  |  |
| CS(=O)(=O)CCN1C(=O)Cc2ccccc2C1=O | 6 |  |  |  |  |
| CN1C(=O)c2ccccc2C(CC(=O)c2ccc(F)cc2)C1=O (stereo unspecified) | 72 | > 10 | > 100 | 41.1 |  |
| CCOC(=O)CCN1C(=O)c2ccccc2C(CC(=O)c2ccccc2)C1=O (stereo unspecified) | 71 | 6 | > 100 | 55.3 | 16.7 |
| CN1C(=O)Cc2ccccc2C1=O | 14 |  |  |  |  |
